For experiment [1], the target named is T1, IRE1a (Homo sapiens, UniProt O75460). The experiment in a line: IRE1a Endoribonuclease Nanoluciferase Assay (XBP1 luciferase reporter in 293T cells). It counts as cell-based. Conditions: 293T cells transfected with XBP1 luciferase reporter, ER stressors +/- inhibitors. The method, then:
Compounds disclosed herein were assessed for disruption of IRE1 signaling using a IRE1a Endoribonuclease Nanoluciferase Assay. Briefly, 2.5×10^6 293T cells were seeded in a 10 cm^2 tissue culture plate. About 24 hours later, the cells were transfected with Effectene. In a 15 mL Tube, the following was added: 2 ug XBP1 luciferase reporter plasmid (PGK-Luc2-P2A-XBP1u-Nanoluciferase-PEST); 300 ul EC buffer; and 16 ul Enhancer, followed by incubation at room temp for 5 minutes. Next, 60 ul Effectene (Qiagen 301427) was added, followed by incubation at room temperature for 10 minutes. 2.6 mL cDMEM media was added. Old media was aspirated from the cells, followed by addition of 7 mL fresh media. Full transfection mixture was added dropwise to cells. Cells were incubated for 6 hours, followed by trypsinization, centrifugation and resuspension in 11 mL media. 100 uL of cells were plated per a well in a 96 well plate. A day later, ER stressors of choice +/− inhibitors were added. To harvest, media was aspirated from cells completely, then 50 uL 1× passive lysis buffer (Promega: E1941) was added per well and put on shaker (300 rpm) for 30 minutes at room temperature. Cells were centrifuged, and 15 uL sample per well was added to a new, opaque white 384 well plate (Corning 3570). 15 uL OneGlo (nanoluciferase kit, Promega N1630) was added. Plates were spun down, placed on shaker (300 rpm) for 10 minutes. Plates were read on luminometer, 1000 ms integration time per well. 15 uL Stop and Glo (nanoluciferase kit) was added. Plates were spun down, placed on shaker (300 rpm) for 10 minutes. Plates were read on luminometer, 1000 ms second integration time per well. Recordings are provided below in Table 4.

The next experiment has as its system 293T cells. The experiment in a line: Growth assay (cytotoxicity). It counts as cell-based. Conditions: 2 day incubation. The method, then:
A growth assay was performed to evaluate the compounds disclosed herein for cytotoxicity. Briefly, 5,000,000 293T cells were resuspended in 18 mL of cDMEM for a final concentration of 277,777 cells/mL. […] In a separate 96 well dilution plate, 199 uL cDMEM and 1 uL of DMSO or any one of the compounds disclosed herein (shown as Test Compound 1, 2, 3, 4, 5, or 6 below) were added to wells A4, A8, C4, C8, E4, E8, G4, and G8. 133.3 uL cDMEM was added to wells 1, 2, 3, 5, 6, and 7 in rows A, C, E and G of the dilution plate. Compounds were serially diluted leftwards in threefold dilutions (66.7 uL into 133.3 uL cDMEM). 20 uL of each dilution was transferred in duplicate (duplicates in vertical paired wells) to the cells plated in the 96-well plate shown in Table 5, to the total concentrations shown below. 200 uL cDMEM was added to media wells (wells G5-H8). The plate was then placed in a humidified chamber for a 2 day incubation, and then photographed (media was more yellow in wells with potent cell growth). Absorbance was then measured at about […] (lower for more acidic media) and about […] (higher for more acidic media).

The target of experiment [2] is T1, IRE1a. The experiment in a line: In vitro FRET assay (XBP1 RNA probe cleavage by IRE1a). More on the design: purchased SignalChem. It counts as biochemical. Conditions: 2 nM IRE1a protein. As for the experimental part:
In vitro FRET assay was performed to evaluate the ability of select compounds to inhibit IRE1, the results of which are summarized in Table 3. To perform the in vitro FRET assay, 1× complete assay buffer (CAB; […], 50 mM sodium citrate pH 7.15, ImM magnesium acetate, 0.02% tween 20) was used to dilute SignalChem IRE1a protein to a final concentration of 2 nM. Selected compounds were serially diluted with DMSO in a non-binding black 384-well plate for a total of 15 ul in each well. 2 ul of the serially diluted compound or DMSO control were then added to new wells containing 98 ul of 1×CAB, for a total volume of 100 ul, 10 ul of which were then transferred to wells of a new plate. 5 ul of the diluted IRE1a was then added to each well. 5 ul of a […] XBP1 RNA probe was then added to each well. Fluorescence was then read over 30 minutes in kinetic mode (485/515 nm).
Two RNA probes were used, XBP1 wildtype (SEQ ID NO: 2) which is able to be spliced by active IRE1a or XBP1 mutant (SEQ ID NO: 3) which is unable to be spliced. Each probe contained a 5′ 6-FAM modification and a 3′ IOWA Black FQ modification. […]

Structures are written as SMILES.

T1 sequence (O75460 19-977): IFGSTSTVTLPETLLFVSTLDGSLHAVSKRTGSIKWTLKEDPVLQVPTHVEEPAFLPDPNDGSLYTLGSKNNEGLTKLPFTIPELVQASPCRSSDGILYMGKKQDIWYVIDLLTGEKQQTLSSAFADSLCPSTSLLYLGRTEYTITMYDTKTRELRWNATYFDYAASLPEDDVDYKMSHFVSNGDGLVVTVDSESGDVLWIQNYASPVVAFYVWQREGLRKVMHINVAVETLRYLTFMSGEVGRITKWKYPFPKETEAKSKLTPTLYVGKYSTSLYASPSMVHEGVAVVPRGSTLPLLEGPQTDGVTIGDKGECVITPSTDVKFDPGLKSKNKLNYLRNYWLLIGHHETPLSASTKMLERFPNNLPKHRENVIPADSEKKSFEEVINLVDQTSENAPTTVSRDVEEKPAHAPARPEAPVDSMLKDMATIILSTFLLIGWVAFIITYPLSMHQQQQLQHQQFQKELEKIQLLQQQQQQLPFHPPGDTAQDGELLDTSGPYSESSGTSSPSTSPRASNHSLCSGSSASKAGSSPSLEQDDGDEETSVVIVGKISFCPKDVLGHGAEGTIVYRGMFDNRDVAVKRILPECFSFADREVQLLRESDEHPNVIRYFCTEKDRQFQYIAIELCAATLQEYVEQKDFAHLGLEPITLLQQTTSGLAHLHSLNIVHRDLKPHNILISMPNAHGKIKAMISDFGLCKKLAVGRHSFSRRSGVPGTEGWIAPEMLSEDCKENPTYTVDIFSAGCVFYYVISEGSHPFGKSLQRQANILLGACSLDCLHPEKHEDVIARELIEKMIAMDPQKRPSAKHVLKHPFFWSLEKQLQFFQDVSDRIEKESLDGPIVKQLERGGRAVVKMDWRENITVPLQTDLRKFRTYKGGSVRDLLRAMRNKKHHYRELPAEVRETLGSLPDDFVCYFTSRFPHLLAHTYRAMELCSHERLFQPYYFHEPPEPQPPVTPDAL

As a reminder, the EC50 is the concentration giving half of the maximal effect. Lower therefore signals an effect from little substance. For orientation: IC50 means the midpoint of a concentration-inhibition curve. Turning to `CCc1cc(-c2ccc(NS(=O)(=O)c3ccccc3Cl)cc2)cc2cnc(N[C@H]3CC[C@H](N)CC3)nc12.O=CO` [18; Formic Acid], the concentration giving a half-maximal response (EC50) at IRE1a [1] is ≤ 5 nM. Further, in the experiment on 293T cells, the “% Growth at 0.185 uM” value is listed as “D (D: >75% to ≤100%)”, the “% Growth at 0.5556 uM” value was “D (D: >75% to ≤100%)”, the “% Growth at 1.667 uM” value was “C (C: >50% to ≤75%)” and the “% Growth at 5 uM” value is on record as “A (A: ≤25%)”. For the same molecule, on IRE1a [2], the 50% inhibitory concentration (IC50) was ≤ 5 nM.
Regarding `CCc1cc(-c2cnc(NS(=O)(=O)c3ccccc3Cl)cn2)cc2cnc(N[C@H]3CC[C@H](N)CC3)nc12.O=CO` [25; Formic Acid], on IRE1a [1], the EC50 was ≤ 5 nM. In the experiment on 293T cells, the “% Growth at 0.185 uM” value was “D (D: >75% to ≤100%)”, the “% Growth at 0.5556 uM” value is recorded as “D (D: >75% to ≤100%)”, the “% Growth at 1.667 uM” value is on record as “D (D: >75% to ≤100%)” and the “% Growth at 5 uM” value was “D (D: >75% to ≤100%)”. For the same molecule, the IC50 against IRE1a [2] is ≤ 5 nM.
In turn, `CCc1cc(-c2ncc(NS(=O)(=O)c3ccccc3Cl)cc2C)cc2cnc(N[C@H]3CC[C@H](N)CC3)nc12.O=CO` [20; Formic Acid] displayed an EC50 at IRE1a [1] of 50 to 100 nM. Moreover, in the experiment with 293T cells, the “% Growth at 0.185 uM” value is recorded as “D (D: >75% to ≤100%)”, the “% Growth at 0.5556 uM” value is “D (D: >75% to ≤100%)”, the “% Growth at 1.667 uM” value is “D (D: >75% to ≤100%)” and the “% Growth at 5 uM” value was “C (C: >50% to ≤75%)”. Further, the IC50 against IRE1a [2] is ≤ 5 nM.
For `CCc1cc(-c2ccc(NS(=O)(=O)c3ccccc3Cl)nc2)cc2cnc(N[C@H]3CC[C@H](N)CC3)nc12.O=CO` [27; Formic Acid], at IRE1a [1], the EC50 was ≤ 5 nM. Besides, in the experiment on 293T cells, the “% Growth at 0.185 uM” value is reported as “D (D: >75% to ≤100%)”, the “% Growth at 0.5556 uM” value is “D (D: >75% to ≤100%)”, the “% Growth at 1.667 uM” value was “C (C: >50% to ≤75%)” and the “% Growth at 5 uM” value is “B (B: >25% to ≤50%)”. Further, the IC50 against IRE1a [2] is ≤ 5 nM.
With `CCc1cc(-c2ccc(NS(=O)(=O)c3ccccc3Cl)cc2F)cc2cnc(N[C@H]3CC[C@H](N)CC3)nc12.O=CO` [35; Formic Acid], the 50% effective concentration (EC50) at IRE1a [1] was ≤ 5 nM. Also, in the experiment on 293T cells, the “% Growth at 0.185 uM” value is “D (D: >75% to ≤100%)”, the “% Growth at 0.5556 uM” value is on record as “D (D: >75% to ≤100%)”, the “% Growth at 1.667 uM” value was “C (C: >50% to ≤75%)” and the “% Growth at 5 uM” value was “B (B: >25% to ≤50%)”. The IC50 against IRE1a [2] was ≤ 5 nM.
On to `CCc1cc(-c2ccc(NS(=O)(=O)c3ccccc3Cl)cn2)cc2cnc(N[C@H]3CC[C@H](N)CC3)nc12.O=CO` [28; Formic Acid], for which, at IRE1a [1], the EC50 was ≤ 5 nM. Further, in the experiment on 293T cells, the “% Growth at 0.185 uM” value is listed as “D (D: >75% to ≤100%)”, the “% Growth at 0.5556 uM” value is given as “D (D: >75% to ≤100%)”, the “% Growth at 1.667 uM” value is given as “C (C: >50% to ≤75%)” and the “% Growth at 5 uM” value is on record as “B (B: >25% to ≤50%)”. In addition, the IC50 at IRE1a [2] was ≤ 5 nM.
For `CCc1cc(-c2ccc(NS(=O)(=O)c3ccccc3OC)nc2OC)cc2cnc(N[C@H]3CC[C@H](N)CC3)nc12` [109; Formic Acid], at IRE1a [1], the EC50 was ≤ 5 nM. Moreover, on IRE1a [2], the IC50 was ≤ 5 nM.
With `CCc1cc(-c2ccc(NS(=O)(=O)c3ccccc3Cl)c(F)c2)cc2cnc(N[C@H]3CC[C@H](NC(=O)[C@@H](N)C(C)C)CC3)nc12` [58; Formic Acid], the EC50 on IRE1a [1] is ≤ 5 nM. Besides, on IRE1a [2], the half-maximal inhibitory concentration (IC50) is 5 to 50 nM.
The matching figures for `N[C@H]1CC[C@H](Nc2ncc3cc(-c4ccc(NS(=O)(=O)c5ccccc5Cl)cc4F)ccc3n2)CC1` [48; Formic Acid]: 5 to 50 nM and ≤ 5 nM.
The matching figures for `Cn1nc(NS(=O)(=O)c2ccccc2Cl)cc1-c1ccc2nc(N[C@H]3CC[C@H](N)CC3)ncc2c1` [Compound 1, N-(5-(2-(((1r,4r)-4-aminocyclohexyl)amino)quinazolin-6-yl)-1-methyl-1H-pyrazol-3-yl)-2-chlorobenzenesulfonamide]: > 100 nM and 5 to 50 nM.
The matching figures for `CCc1cc(-c2ccc(NS(=O)(=O)c3ccccc3Cl)nc2OC(F)(F)F)cc2cnc(N[C@H]3CC[C@H](N)CC3)nc12` [107; Formic Acid]: ≤ 5 nM and ≤ 5 nM.
`CCc1cc(-c2ncc(NS(=O)(=O)c3ccccc3Cl)nc2OC)cc2cnc(N[C@H]3CC[C@H](N)CC3)nc12` [98; Formic Acid]: the concentration for a half-maximal effect (EC50) on IRE1a [1] is ≤ 5 nM. In addition, the IC50 against IRE1a [2] is ≤ 5 nM.
With `CCc1cc(-c2cnc(NS(=O)(=O)c3ccccc3Cl)cc2OC)cc2cnc(N[C@H]3CC[C@H](N)CC3)nc12` [92; Formic Acid], the EC50 at IRE1a [1] is > 100 nM. Further, the IC50 at IRE1a [2] was ≤ 5 nM.
Taken in the same sequence, the figures for `CCc1cc(-c2ccc(NS(=O)(=O)c3ccccc3Cl)c(F)c2)cc2cnc(N[C@@H]3CC[C@@H](N)[C@H](C)C3)nc12` [74; Formic Acid] were ≤ 5 nM and ≤ 5 nM.
With `COc1nc(NS(=O)(=O)c2ccccc2Cl)ccc1-c1cc(C)c2nc(N[C@H]3CC[C@H](N)CC3)ncc2c1` [115; Formic Acid], the EC50 on IRE1a [1] was ≤ 5 nM. Moreover, the IC50 against IRE1a [2] is ≤ 5 nM.
As for `CCc1cc(-c2ccc(NS(=O)(=O)c3cccc(C)c3)nc2C)cc2cnc(N[C@H]3CC[C@H](N)CC3)nc12` [113; Formic Acid], at IRE1a [1], the EC50 lay within 5 to 50 nM. Moreover, the IC50 at IRE1a [2] was ≤ 5 nM.
Taken in the same sequence, the figures for `N[C@H]1CC[C@H](Nc2ncc3cc(-c4ncc(NS(=O)(=O)c5ccccc5Cl)cc4F)ccc3n2)CC1` [51; Formic Acid] were 50 to 100 nM and ≤ 5 nM.
Taken in the same sequence, the figures for `N[C@H]1CC[C@@H](Nc2ncc3cc(-c4ccc(NS(=O)(=O)c5ccccc5Cl)c(F)c4)ccc3n2)C1` [80; Formic Acid] were > 100 nM and ≤ 5 nM.
Taken in the same sequence, the figures for `COc1nc(NS(=O)(=O)c2ccccc2Cl)ccc1-c1cc(C(C)(F)F)c2nc(N[C@H]3CC[C@H](N)CC3)ncc2c1` [123; Formic Acid] were ≤ 5 nM and ≤ 5 nM.
Take `CCc1cc(-c2ccc(NS(=O)(=O)c3ccccc3Cl)c(F)c2)cc2cnc(N[C@@H]3CC[C@H](N)[C@H](C)C3)nc12` [70; Formic Acid]: on IRE1a [1], the concentration for a half-maximal effect (EC50) was ≤ 5 nM. The 50% inhibitory concentration (IC50) on IRE1a [2] is ≤ 5 nM.
For `COc1nc(NS(=O)(=O)c2ccccc2Cl)ccc1-c1cc2cnc(N[C@H]3CC[C@H](N)CC3)nc2cc1C` [104; Formic Acid], the EC50 at IRE1a [1] is 50 to 100 nM. Further, on IRE1a [2], the concentration for half-maximal inhibition (IC50) was ≤ 5 nM.
Take `CCc1cc2nc(N[C@H]3CC[C@H](N)CC3)ncc2cc1-c1ccc(NS(=O)(=O)c2ccccc2Cl)nc1OC` [110; Formic Acid]: the EC50 at IRE1a [1] was ≤ 5 nM. Moreover, the IC50 at IRE1a [2] is ≤ 5 nM.
Turning to `CCc1cc(-c2ccc(NS(=O)(=O)c3ccccc3Cl)c(F)c2)cc2cnc(N[C@H]3CC[C@H](NC(C)=O)CC3)nc12` [59; Formic Acid], on IRE1a [1], the EC50 lay within 50 to 100 nM. The molecule also yielded an IC50 against IRE1a [2] of 5 to 50 nM.
Taken in the same sequence, the figures for `Cc1cc2nc(N[C@H]3CC[C@H](N)CC3)ncc2cc1-c1ccc(NS(=O)(=O)c2ccccc2Cl)c(F)c1` [90; Formic Acid] were 5 to 50 nM and ≤ 5 nM.

The record behind these values is patent US20180346446A1, “IRE1 SMALL MOLECULE INHIBITORS” (QUENTIS THERAPEUTICS, INC., priority 2017, published 2018).
